Results on 18 compounds are retold here after patent US20260193293A1, “PEPTIDES CAPABLE OF INHIBITING PROTEIN-PROTEIN INTERACTIONS AT GABAB1A SUBUNIT AND USES THEREOF” (UNIVERSITY OF COPENHAGEN, priority 2022, published 2026).

The experiment deals with Sushi domains (SD1/2) protein. The experiment can be described thus: Fluorescence polarization (FP) competition assay with AJAP-1probe, calculated Ki. Conditions: read-out: Ki (nM) mean ± SEM. The experiment is classed as binding. Summed up: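 Competition against 25 nM TAMRA-labelled peptide probe binding SD1/2, in PBS pH 7.4 with 1% BSA at rt, read at 530/580 nm. IC50 from sigmoidal dose-response fits, at least triplicate; Ki calculated from IC50 using probe Kd from saturation binding.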

The mark [1] stands for this setting: Table 4, truncation and elongation scans of APP epitope.
[2] abbreviates: Table 7, Ala-, D-amino acids and N-methylation scans of APPWT.
The mark [3] stands for this setting: Table 8, Ala-, D-amino acids and N-methylation scans of AJAP-1WT.
Setting [4] is: Table 16, ncAAs incorporated peptides.

Structures are written as SMILES. Like-named read-outs stand apart in the source and are kept apart here. Non-standard residues stand in square brackets, D forms with d. Residues, ends and D or L forms follow the SMILES beside them. *: point of attachment. NMeW = CN[C@@H](Cc1c[nH]c2ccccc12)C(=O)O; 1Nal = N[C@@H](Cc1cccc2ccccc12)C(=O)O; 2Nal = N[C@@H](Cc1ccc2ccccc2c1)C(=O)O; NMeT = CN[C@H](C(=O)O)[C@@H](C)O; NMeE = CN[C@@H](CCC(=O)O)C(=O)O; Bn = c1ccc(C*)cc1 Bounds are passed on as bounds.

Turning to `CC[C@H](C)[C@H](NC(=O)[C@H](C)NC(=O)[C@H](Cc1c[nH]c2ccccc12)NC(C)=O)C(=O)N[C@H](C(=O)N[C@@H](Cc1c[nH]c2ccccc12)C(=O)NCC(=O)N1CCC[C@H]1C(=O)N[C@H](C(=O)N[C@H](C(=O)N[C@@H](CO)C(=O)N[C@@H](CCCNC(=N)N)C(=O)N[C@@H](CCC(=O)O)C(=O)N[C@@H](CC(=O)O)C(=O)NCC(=O)NCC(N)=O)C(C)C)[C@@H](C)O)C(C)C` (Ac-WAIVWGPTVSREDGG-NH2), for the setting “Table 3, SPOT hit validation and previously reported peptides”, the Ki is 1350 ± 49 nM.
Take `CC(=O)N[C@@H](Cc1c[nH]c2ccccc12)C(=O)NCC(=O)NCC(=O)N[C@@H](C)C(=O)N[C@@H](CC(=O)O)C(=O)N[C@H](C(=O)N[C@@H](CC(=O)O)C(=O)N[C@@H](Cc1ccc(O)cc1)C(=O)N[C@@H](C)C(=O)N[C@@H](CC(=O)O)C(N)=O)[C@@H](C)O` (Ac-WGGADTDYAD-NH2): the Ki under setting [1] was above 62500 nM.
For the compound `CC(=O)N[C@@H](Cc1c[nH]c2ccccc12)C(=O)N[C@@H](Cc1c[nH]c2ccccc12)C(=O)NCC(=O)NCC(=O)N[C@@H](C)C(=O)N[C@@H](CC(=O)O)C(=O)N[C@H](C(=O)N[C@@H](CC(=O)O)C(=O)N[C@@H](Cc1ccc(O)cc1)C(=O)N[C@@H](C)C(=O)N[C@@H](CC(=O)O)C(N)=O)[C@@H](C)O` (Ac-WWGGADTDYAD-NH2), the Ki under setting [1] was above 62500 nM.
Regarding `CC[C@H](C)[C@H](NC(=O)[C@H](C)NC(=O)[C@H](Cc1c[nH]c2ccccc12)NC(=O)[C@@H]1CCCN1C(=O)[C@H](Cc1ccc(O)cc1)NC(C)=O)C(=O)N[C@H](C(=O)N[C@@H](Cc1c[nH]c2ccccc12)C(=O)NCC(=O)N1CCC[C@H]1C(=O)N[C@H](C(=O)N[C@H](C(=O)N[C@@H](CO)C(=O)N[C@@H](CCCNC(=N)N)C(=O)N[C@@H](CCC(=O)O)C(=O)N[C@@H](CC(=O)O)C(=O)NCC(N)=O)C(C)C)[C@@H](C)O)C(C)C` (Ac-YPWAIVWGPTVSREDG-NH2), the Ki (Table 6, elongation and truncation scan of PIANP binding epitope) was 433 ± 2 nM.
As for `CC(=O)N(C)[C@@H](CCC(=O)O)C(=O)N[C@@H](CC(=O)O)C(=O)N[C@@H](CC(=O)O)C(=O)N[C@@H](CO)C(=O)N[C@@H](CC(=O)O)C(=O)N[C@H](C(=O)N[C@@H](Cc1c[nH]c2ccccc12)C(=O)N[C@@H](Cc1c[nH]c2ccccc12)C(=O)NCC(=O)NCC(=O)N[C@@H](C)C(=O)N[C@@H](CC(=O)O)C(=O)N[C@H](C(=O)N[C@@H](CC(=O)O)C(N)=O)[C@@H](C)O)C(C)C` (Ac-[NMeE]DDSDVWWGGADTD-NH2), the Ki under setting [2] was 670 ± 6 nM.
With `CC[C@H](C)[C@H](NC(=O)[C@H](Cc1ccccc1)NC(=O)[C@H](CCC(=O)O)NC(=O)[C@@H](NC(=O)[C@H](CCC(=O)O)N(C)C(C)=O)[C@@H](C)O)C(=O)N[C@@H](C)C(=O)N[C@@H](Cc1c[nH]c2ccccc12)C(=O)NCC(=O)N1CCC[C@H]1C(=O)N[C@H](C(=O)NCC(=O)N[C@@H](CC(=O)O)C(=O)N[C@@H](CCC(=O)O)C(=O)N[C@@H](CC(=O)O)C(N)=O)[C@@H](C)O` [(N-Me-E)TEFIAWGPTGDED] (Ac-[NMeE]TEFIAWGPTGDED-NH2), the Ki under setting [3] was 35 ± 1 nM.
Consider `CC[C@H](C)[C@H](NC(=O)[C@H](Cc1ccccc1)NC(=O)[C@H](CCC(=O)O)NC(=O)[C@@H](NC(=O)[C@H](C)NC(C)=O)[C@@H](C)O)C(=O)N[C@@H](C)C(=O)N[C@@H](Cc1c[nH]c2ccccc12)C(=O)NCC(=O)N1CCC[C@H]1C(=O)N[C@H](C(=O)NCC(=O)N[C@@H](CC(=O)O)C(=O)N[C@@H](CCC(=O)O)C(=O)N[C@@H](CC(=O)O)C(N)=O)[C@@H](C)O` [ATEFIAWGPTGDED] (Ac-ATEFIAWGPTGDED-NH2), for which the Ki under setting [3] was 53 ± 2 nM.
On to `CC[C@H](C)[C@H](NC(=O)[C@H](C)NC(=O)[C@H](Cc1c[nH]c2ccccc12)NC(=O)[C@H](C)NC(C)=O)C(=O)N[C@H](C(=O)N[C@@H](Cc1c[nH]c2ccccc12)C(=O)NCC(=O)N1CCC[C@H]1C(=O)N[C@H](C(=O)N[C@H](C(=O)N[C@@H](CO)C(=O)N[C@@H](CCCNC(=N)N)C(=O)N[C@@H](CCC(=O)O)C(=O)N[C@@H](CC(=O)O)C(N)=O)C(C)C)[C@@H](C)O)C(C)C` [AWAIVWGPTVSRED] (Ac-AWAIVWGPTVSRED-NH2), for which, where the note is “Table 9, Ala-, D-amino acids and N-methylation scans of PIANPWT”, the Ki is 552 ± 20 nM.
For `CC(=O)N[C@@H](C)C(=O)N[C@@H](Cc1c[nH]c2ccccc12)C(=O)NCC(=O)N1CCC[C@H]1C(=O)N[C@H](C(=O)NCC(=O)N[C@@H](CC(=O)O)C(=O)N[C@@H](CCC(=O)O)C(=O)N[C@@H](CC(=O)O)C(N)=O)[C@@H](C)O` [AWGPTGDED] (Ac-AWGPTGDED-NH2), for the setting “Table 5, elongation and truncation scan of AJAP-1 binding epitope”, the Ki is above 125000 nM.
For `CC[C@H](C)[C@H](NC(=O)[C@H](C)NC(=O)[C@H](Cc1c[nH]c2ccccc12)NC(=O)[C@H](CC(=O)O)NC(C)=O)C(=O)N[C@H](C(=O)N[C@@H](Cc1c[nH]c2ccccc12)C(=O)NCC(=O)N1CCC[C@H]1C(=O)N[C@H](C(=O)N[C@H](C(=O)N[C@@H](CO)C(=O)N[C@@H](CCCNC(=N)N)C(=O)N[C@@H](CCC(=O)O)C(=O)N[C@@H](CC(=O)O)C(N)=O)C(C)C)[C@@H](C)O)C(C)C` [DWAIVWGPTVSRED] (Ac-DWAIVWGPTVSRED-NH2), under “Table 12, deep mutational scanning validation variants of PIANPWT”, the Ki was 338 ± 1 nM.
For `CC[C@H](C)[C@H](NC(=O)[C@H](Cc1ccccc1)NC(=O)[C@H](CCC(=O)O)NC(=O)[C@H]([C@@H](C)O)N(C)C(=O)[C@H](CCC(=O)O)NC(C)=O)C(=O)N[C@@H](C)C(=O)N[C@@H](Cc1c[nH]c2ccccc12)C(=O)NCC(=O)N1CCC[C@H]1C(=O)N[C@H](C(=O)NCC(=O)N[C@@H](CC(=O)O)C(=O)N[C@@H](CCC(=O)O)C(=O)N[C@@H](CC(=O)O)C(N)=O)[C@@H](C)O` [E(N-Me-T)EFIAWGPTGDED] (Ac-E[NMeT]EFIAWGPTGDED-NH2), under setting [3], the Ki is 37 ± 2 nM.
Consider `CC[C@H](C)[C@H](NC(=O)[C@H](Cc1ccccc1)NC(=O)[C@H](CCC(=O)O)NC(=O)[C@H](C)NC(=O)[C@H](CCC(=O)O)NC(C)=O)C(=O)N[C@@H](C)C(=O)N[C@@H](Cc1c[nH]c2ccccc12)C(=O)NCC(=O)N1CCC[C@H]1C(=O)N[C@H](C(=O)NCC(=O)N[C@@H](CC(=O)O)C(=O)N[C@@H](CCC(=O)O)C(=O)N[C@@H](CC(=O)O)C(N)=O)[C@@H](C)O` [EAEFIAWGPTGDED] (Ac-EAEFIAWGPTGDED-NH2), for which the Ki under setting [3] was 34 ± 3 nM.
Consider `CC(=O)N[C@@H](CCC(=O)O)C(=O)N[C@@H](CC(=O)O)C(=O)N[C@@H](CC(=O)O)C(=O)N[C@@H](CO)C(=O)N[C@@H](CC(=O)O)C(=O)N[C@H](C(=O)N(C)[C@@H](Cc1c[nH]c2ccccc12)C(=O)N[C@@H](Cc1c[nH]c2ccccc12)C(=O)NCC(=O)NCC(=O)N[C@@H](C)C(=O)N[C@@H](CC(=O)O)C(=O)N[C@H](C(=O)N[C@@H](CC(=O)O)C(N)=O)[C@@H](C)O)C(C)C` [EDDSDV(N-Me-W)WGGADTD] (Ac-EDDSDV[NMeW]WGGADTD-NH2), for which the Ki under setting [2] was 85600 ± 10100 nM.
As to `CC(=O)N[C@@H](CCC(=O)O)C(=O)N[C@@H](CC(=O)O)C(=O)N[C@@H](CC(=O)O)C(=O)N[C@@H](CO)C(=O)N[C@@H](CC(=O)O)C(=O)N[C@H](C(=O)N[C@@H](Cc1c[nH]c2ccccc12)C(=O)N[C@@H](Cc1cccc2ccccc12)C(=O)NCC(=O)NCC(=O)N[C@@H](C)C(=O)N[C@@H](CC(=O)O)C(=O)N[C@H](C(=O)N[C@@H](CC(=O)O)C(N)=O)[C@@H](C)O)C(C)C` [EDDSDVW(1Nala)GGADTD] (Ac-EDDSDVW[1Nal]GGADTD-NH2), the Ki under setting [4] was 499 ± 17 nM.
Regarding `CC(=O)N[C@@H](CCC(=O)O)C(=O)N[C@@H](CC(=O)O)C(=O)N[C@@H](CC(=O)O)C(=O)N[C@@H](CO)C(=O)N[C@@H](CC(=O)O)C(=O)N[C@H](C(=O)N[C@@H](Cc1c[nH]c2ccccc12)C(=O)N[C@@H](Cc1ccc2ccccc2c1)C(=O)NCC(=O)NCC(=O)N[C@@H](C)C(=O)N[C@@H](CC(=O)O)C(=O)N[C@H](C(=O)N[C@@H](CC(=O)O)C(N)=O)[C@@H](C)O)C(C)C` [EDDSDVW(2Nala)GGADTD] (Ac-EDDSDVW[2Nal]GGADTD-NH2), the Ki under setting [4] was 814 ± 10 nM.
As for `CC(=O)N[C@@H](CCC(=O)O)C(=O)N[C@@H](CC(=O)O)C(=O)N[C@@H](CC(=O)O)C(=O)N[C@@H](CO)C(=O)N[C@@H](CC(=O)O)C(=O)N[C@H](C(=O)N[C@@H](Cc1c[nH]c2ccccc12)C(=O)N(C)[C@@H](Cc1c[nH]c2ccccc12)C(=O)NCC(=O)NCC(=O)N[C@@H](C)C(=O)N[C@@H](CC(=O)O)C(=O)N[C@H](C(=O)N[C@@H](CC(=O)O)C(N)=O)[C@@H](C)O)C(C)C` [EDDSDVW(N-Me-W)GGADTD] (Ac-EDDSDVW[NMeW]GGADTD-NH2), under setting [2], the Ki is 1380 ± 16 nM.
Consider `CC(=O)N[C@@H](CCC(=O)O)C(=O)N[C@@H](CC(=O)O)C(=O)N[C@@H](CC(=O)O)C(=O)N[C@@H](CO)C(=O)N[C@@H](CC(=O)O)C(=O)N[C@H](C(=O)N[C@@H](Cc1c[nH]c2ccccc12)C(=O)N[C@@H](Cc1ccc(OCc2ccccc2)cc1)C(=O)NCC(=O)NCC(=O)N[C@@H](C)C(=O)N[C@@H](CC(=O)O)C(=O)N[C@H](C(=O)N[C@@H](CC(=O)O)C(N)=O)[C@@H](C)O)C(C)C` [EDDSDVW(Obtyr)GGADTD] (Ac-EDDSDVWY(Bn)GGADTD-NH2), for which the Ki under setting [4] was 3860 ± 62 nM.
Take `CC(=O)N[C@@H](CCC(=O)O)C(=O)N[C@@H](CC(=O)O)C(=O)N[C@@H](CC(=O)O)C(=O)N[C@@H](CO)C(=O)N[C@@H](CC(=O)O)C(=O)N[C@H](C(=O)N[C@@H](Cc1c[nH]c2ccccc12)C(=O)N[C@@H](Cc1c[nH]c2ccccc12)C(=O)NCC(=O)NCC(=O)N[C@@H](C)C(=O)N[C@@H](CC(=O)O)C(=O)N[C@@H](CCC(=O)O)C(=O)N[C@@H](CC(=O)O)C(N)=O)C(C)C` [EDDSDVWWGGADED] (Ac-EDDSDVWWGGADED-NH2): the Ki (Table 10, deep mutational scanning validation variants of APPWT) is 337 ± 10 nM.
